This is an account of results in patent publication US7491415B2 (priority 2005, dated 2009).

Converted amounts (≈) assume the structure as drawn. “And” between values parts separate entries of the source, which are not always exact repeats. Equal values may be shown once. Read-outs that look alike come from different tables or passages of the source. A value given as a limit tells only on which side of the number the result lay.

The LD50 is the dose expected to kill half of the subjects tested.

One series relates to Alternaria kikuchiana. The series can be described thus: microbe, parasite or virus in culture. Type of series: cell-based.
The next series relates to Botrytis cinerea. The series can be described thus: microbe, parasite or virus in culture. In kind it is cell-based.
Series [1] deals with Colletotrichum lagenarium. The series can be described thus: microbe, parasite or virus in culture. Type of series: cell-based. The following applies: Colletotrichum orbiculare.
The test system of the next series is Fusarium oxysporum. Put plainly: microbe, parasite or virus in culture. In kind it is cell-based.
For series [2], the system named is Magnaporthe grisea. The series can be described thus: microbe, parasite or virus in culture. In kind it is cell-based. The following applies: Pyricularia oryzae.
A further series concerns Pythium ultimum. The series can be described thus: microbe, parasite or virus in culture. The following applies: Globisporangium ultimum. In kind it is cell-based.
The subject of a further series is Rhizoctonia solani. The series can be described thus: microbe, parasite or virus in culture. Type of series: cell-based.
For series [3], the system named is Magnaporthe grisea. Type of series: in vivo. The following applies: RCB rice blast, infected leaf area after 7 days.
A further series has as its system Corticium sasaki. Type of series: in vivo. The settings on record: after 8 days.
The subject of the next series is Phytophthora infestans. Type of series: in vivo. The following applies: for In vivo control values: TLB tomato late blight, after 4 days.
Another series deals with Puccinia recondita. Type of series: in vivo.
Series [4] in a line: Acute toxicity test, oral, mice. Type of series: in vivo. The settings on record: male, mouse, in vivo, ICR mice, single administration, 7 days observation. The method, then: (§1) To perform an acute toxicity test of Chloranthus henryi extract and the sesquiterpene compound of formula (1), 6-week-old ICR mice (♂, 25 g, Korean Bio Corp.) were divided into 4 groups with two mice per each group, and raised under the condition of 22±3° C., 55±10% (humidity), 12L/12D (intensity of illumination). The mice were adapted for 1 week, and freely fed with foods for test animals (Jeil Feed Corp., Korea, for mouse and rat) and sterilized water.
(§2) Chloranthus henryi extract and the sesquiterpene compound of formula (1) were dissolved in a small amount of dimethyl sulfoxide (DMSO), and diluted with 1% carboxylmethyl cellulose. Four groups of mice were orally administered with 540 mg/kg, 180 mg/kg, 60 mg/kg and 20 mg/kg, respectively. Control group was administered with 1% carboxylmethyl cellulose. For 7 days after the administration, the presence of side effects or mortality was observed as follows. […] The changes in clinical signs and mortality of animals after administration were observed twice everyday for 7 days, i.e., in the morning and in the afternoon.
(§3) Further, the internal organs of the dead mice were examined through macroscopic observation after necropsy on the 7th day. The change in body weight of animals by Chloranthus henryi extract and sesquiterpene compound of formula (1) was observed everyday after administration.

In a further series the test system is ICR mice. Put plainly: Acute toxicity test, oral, mice. Type of series: in vivo. As to the method: as §1, §2, §3

With `C/C=C(\C)C(=O)OC[C@]1(O)[C@H]2C[C@H]2[C@]2(C)[C@@H]3CC4=C5[C@H](/C(=C(\C)C(=O)OC)C(=O)[C@H](O)[C@@]5(C)[C@@H]5C[C@H]45)[C@@]34OC(=O)C(COC(C)=O)=C4C[C@@H]12` [CHE-23C], the MIC turned out to be 8 µg/mL (≈ 11.8 µM) in the series on Alternaria kikuchiana; 8 µg/mL (≈ 11.8 µM) against Botrytis cinerea; 8 µg/mL (≈ 11.8 µM) in [1]; 16 µg/mL (≈ 23.6 µM) against Fusarium oxysporum; 4 µg/mL (≈ 5.91 µM) against Magnaporthe grisea [2]; 1 µg/mL (≈ 1.48 µM) against Pythium ultimum. In the series with Rhizoctonia solani, this compound yielded an MIC of 16 µg/mL (≈ 23.6 µM). The “In vivo control values” in the series on Magnaporthe grisea [3] (11 ppm spray) is 67%; with Magnaporthe grisea [3] (33 ppm spray), 50%; with Magnaporthe grisea [3] (100 ppm spray) it was 72%; in the series with Corticium sasaki it was 69% and 50%; in the series on Phytophthora infestans (11 ppm spray) it was 29%; in the series on Phytophthora infestans (33 ppm spray), 91%. Moreover, the “In vivo control values” with Phytophthora infestans (100 ppm spray) was 93%; in the series with Puccinia recondita (after 7 days), 100% and 87% and 80%. Also, the “control values in the greenhouse experiments (in words)” value was “potent control values” in the series with Phytophthora infestans (Phytophthora infestans, greenhouse) and “potent control values” with Puccinia recondita (in vivo). This compound also returned an LD50 at 7 days in series [4] of over 540 mg/kg. Besides, the “mortality in the maximum dosage group” value in the series with ICR mice (540 mg/kg, 7 days) is recorded as “all the mice in the maximum dosage group (540 mg/kg) survived”. In the series with ICR mice (20-540 mg/kg, all treated groups, necropsy on the 7th day), the “gross findings caused by the test materials” value is “no significant gross findings”.
